Results from patent US7345091B2, “Carotenoid ether analogs or derivatives for the inhibition and amelioration of disease” (Cardax Pharmaceuticals, Inc., priority 2002, dated 2008).
Entries after “also recorded” stand apart in the source; their conditions may differ. Where a name gives a salt, the structure may show the parent alone.

What was measured:
male Sprague-Dawley rats = test: Infarct size reduction after coronary artery occlusion/reperfusion; type: in vivo, rat; conditions: for relationship of infarct size reduction / myocardial salvage to dose: 25, 50, 75 mg/kg I.V.
Experimental: FIG. 4, FIG. 25, and FIG. 26 depict graphical representations of the reduction of infarct size in male Sprague-Dawley rats. Male Sprague-Dawley rats were pre-treated with the disodium salt disuccinate astaxanthin derivative XVI (as the mixture of stereoisomers) in aqueous solution before performing an occlusion and inducing a myocardial infarction. Male Sprague-Dawley rats (175-200 grams) were anaesthetized with 100 mg/kg of Inactin, instrumented, and the heart exposed. […] The hearts were washed in buffer and incubated in triphenyltetrazolium chloride (TTC) staining solution kept at 37° C. in phosphate buffer at pH of 7.40. Infarct size (IS) was expressed as a % of the area at risk (IS/AAR, %). Systemic blood pressure, heart rate, blood gases and body temperature were monitored throughout the experiment, and temperature and blood gases were tightly controlled at normal physiological levels. 25, 50, or 75 mg/kg of the disodium salt disuccinate astaxanthin derivative XVI or sterile saline vehicle was administered I.V. by tail vein injection every day for 4 days prior to the infarct experiment on day 5 and subsequent infarct size determination.

C3H/10T1/2 cells = test: Assembly of Cx43 into plaques (immunofluorescent staining); type: cell-based, mouse; conditions: 1×10^-5 M in 1:2 EtOH/H2O, 4 days
Experimental: In this experiment expression and assembly of Cx43 into plaques was assessed by immunofluorescent staining. Procedures were essentially as described in Zhang (1992). Briefly, confluent cultures of C3H/10T1/2 cells were grown on Permanox plastic 4-chamber slides (Nalge Nunc International, Naperville, Ill.) and treated for 4 days with: (1) the disodium salt disuccinate astaxanthin derivative XVI (statistical mixture of stereoisomers) dissolved in a 1:2 EtOH/H2O formulation; (2) the retinoid TTNPB at 1×10^−8 M in tetrahydrofuran as a positive control; or (3) 1:2 EtOH/H2O as a solvent control. Cells were fixed with −20° C. methanol overnight, washed in buffer, blocked in 1% bovine serum albumin (Sigma, St, Louis, Mo.) in PBS, and incubated with the rabbit polyclonal anti-Cx43 antibody (Zymed, San Francisco, Calif.) as in (2) above and detected with Alexa568 conjugated anti-rabbit secondary (Molecular Probes, Eugene, Oreg.). Slides were illuminated with […] light and images were acquired at a wavelength of 600 nm using the Zeiss Axioscope light microscope and a Roper Scientific cooled CCD camera. […] In cultures treated with solvent as control, such immunoreactive plaques were infrequent and were smaller than those detected in cells treated with the statistical mixture of stereoisomers of the disodium salt disuccinate astaxanthin derivative XVI or with TTNPB as positive control. […]

Cx43 protein = Cx43 protein expression by stereoisomer forms (immuno-(Western) blotting, 4 days); type: cell-based, mouse; conditions: 1×10^-5 M in 1:2 ethanol/H2O
Experimental: (2) Molecular Studies. […] Briefly, mouse embryonic fibroblast C3H10T1/2 cells were cultured in Eagle's basal medium with Earle's salts (Atlanta Biologicals, Atlanta, Ga.), supplemented with 5% fetal calf serum (Atlanta Biologicals, Atlanta, Ga.) and 25 μg/mL gentamicin sulfate (Sigma, St. Louis, Mo.), and incubated at 37° C. in 5% CO2. On the 7th day after seeding in 100 millimeter (mm) dishes, the confluent cells were treated for four days with the disodium salt disuccinate astaxanthin derivatives XVI and then harvested and analyzed for Cx43 protein induction as described. Protein content was measured using the Protein Assay Reagent kit (Pierce Chemical Co., Rockford, Ill.) according to manufacturer's instructions. Cell lysates containing 100 μg of protein were analyzed by Western blotting using the NuPage western blotting kit and apparatus (Invitrogen, Carlsbad, Calif.) and Cx43 protein detected using a rabbit polyclonal antibody (Zymed, San Francisco, Calif.) raised against a synthetic polypeptide corresponding to the C-terminal domain of mouse, human and rat Cx43. Cx43 immunoreactive bands were visualized by chemiluminescence using an anti-rabbit HRP-conjugated secondary antibody (Pierce Chemical Co., Rockford, Ill.). Digital images were obtained with a cooled CCD camera, and quantitative densitometry was then performed (Bio-Rad, Richmond, Calif.).

With `CC1=C(/C=C/C(C)=C/C=C/C(C)=C/C=C/C=C(C)/C=C/C=C(C)/C=C/C2=C(C)C(=O)C(OC(=O)CCC(=O)O)CC2(C)C)C(C)(C)CC(OC(=O)CCC(=O)O)C1=O` (racemic) [XVI, Disodium Salt of the Disuccinic Acid Ester of Astaxanthin] the mean myocardial salvage (male Sprague-Dawley rats; 75 mg/kg I.V. daily for 4 days before 30 min occlusion / 2 hours reperfusion) was 56%, the “relationship of infarct size reduction / myocardial salvage to dose” value (male Sprague-Dawley rats) was “increased linearly, and significantly, with dose” and the “relationship of infarct size reduction / myocardial salvage to dose” value (male Sprague-Dawley rats; listed as Cardax™) was “linear relationship between dose and infarct size reduction”. For the same molecule, the “assembly of immunoreactive Cx43 into plaques” value (C3H/10T1/2 cells) was “increases assembly of Cx43; also recorded: exhibited assembly of immunoreactive Cx43 into plaques”, the “rank of Cx43 induction level among derivatives” value (Cx43 protein) was “highest induction level of Cx43 of all derivatives tested” and the “expression of Cx43 protein” value (Cx43 protein; four days, vs 1:2 ethanol/H2O alone) was “increase expression of Cx43 protein”.
